Data as given in patent US11319292B2, “Metabolically stable 5-HMF derivatives for the treatment of hypoxia” (King Abdulaziz University, priority 2020, dated 2022).

Experiments:
intact SS cells = test: Inhibition of hypoxia-induced RBC sickling (RBC morphology study) in homozygous SS blood; assay type: cell-based, human; settings: SS blood hematocrit 20%, 2.5% oxygen, 37° C., 2 hr
Source text: (§1) Materials and General Procedure: Leftover blood samples from patients with homozygous SS were obtained and utilized, based on an approved IRB protocol at the Children's Hospital of Philadelphia, with informed consent.
(§2) Experimental Procedure: The MMA series of compounds (MMA-301, MMA-304, MMA-205, MMA-401, MMA-402, MMA-403, MMA-405, MMA-406, MMA-407, MMA-408, MMA-409 and MMA-410) and the positive controls vanillin and 5-HMF were studied for their abilities to inhibit hypoxia-induced RBC sickling (RBC morphology study), increase Hb oxygen, and/or modify Hb (adduct formation) as previously published.^31,33 Briefly, homozygous SS blood (hematocrit: 20%) suspensions were incubated under air in the absence or presence of 2 and/or 5 mM concentration of test compounds at 37° C. for 1 hr. Following, the suspensions were incubated under hypoxic condition (2.5% oxygen) at 37° C. for 2 hr. Aliquot samples were fixed with 2% glutaraldehyde solution without exposure to air, and then subjected to microscopic morphological analysis. The residual samples were washed in phosphate-buffered saline, and hemolyzed in hypotonic lysis buffer for the Hb oxygen equilibrium and Hb adduct experiments. For the Hb oxygen equilibrium study, approximately 100 μl aliquot samples from the lysate were added to 4 ml of 0.1M potassium phosphate buffer, pH 7.0, in a cuvette and subjected to hemoximetry analysis using Hemox™ Analyzer (TCS Scientific Corp.) to assess P50 shifts. Another aliquot from the lysate was also subjected to Hb adduct formation study using cation-exchange HPLC (Hitachi D-7000 Series, Hitachi Instruments, Inc., San Jose, Calif.) with a weak cation-exchange column (Poly CAT A: 30 mm×4.6 mm, Poly LC, Inc., Columbia, Md.). To determine the binding of the MMA compounds to either α- or β-globin chains, the hemolysates were subjected to reversed-phase (RP) HPLC on a Hitachi D-7000 HSM Series, using a Jupiter 5 μm C-4 50×4.6 mm column, (Phenomenex®, Torrence, Calif.) and a gradient from 20% to 60% acetonitrile in 0.3% trifluoroacetic acid in 15 minutes, with UV detection at 215 nm.

Hb [1] = target: T1, Hb (Homo sapiens, UniProt P68871+P69905); test: In vitro time-dependent Hb oxygen equilibrium study using normal whole blood; assay type: in vitro ADME; settings: 2 mM; normal whole blood 30% hct; 37° C.; 1, 4 and 24 hr
T1 construct: Normal whole blood was collected from adult donors; from tissue; host or cells: normal whole blood of adult donors
Experimental: Materials and General Procedure: Normal whole blood was collected from adult donors at the Virginia Commonwealth University after informed consent, in accordance with regulations of the IRB for Protection of Human.
Experimental procedure: MMA-409 and the control 5-HMF were used to conduct time-dependent studies on Hb oxygen oxygen equilibrium using normal whole blood. The study was performed in a 96-well deep well (Thermo Scientific) plate, where each compound at 2 mM concentration was added to 600 μL of whole blood (30% hct) and incubated at 37° C. for 24 hr with shaking (at 140 rpm). Additionally, DMSO (1%) alone was also tested as a negative control. At 1, 4 and 24 hr time intervals, 75 μL aliquot of blood was removed from each well using a multichannel pipette and the reaction stopped by freezing at −80° C. until ready for hemoximetry analysis using Hemox™ Analyzer (TCS Scientific Corp.) to assess P50 shifts.^32 The observed P50 shifts values in % P50 shifts were plotted as function of time [hrs].

Hb [2] = target: T2, Hb (Homo sapiens, UniProt P68871+P69905, E7V); test: Hb oxygen equilibrium study (P50 shift, Hemox Analyzer) on lysate of compound-treated SS cells; assay type: cell-based; settings: intact SS cells; for activation at 2000 µM: 2 mM compound; for activation at 2000 µM / activation at 5000 µM: read-out: increase in Hb oxygen affinity (ΔP50); for activation at 5000 µM: 5 mM compound; for effect on Hb affinity for oxygen: 2 mM and/or 5 mM
T2 construct: Leftover blood samples from patients with homozygous SS were obtained and utilized; from tissue; host or cells: blood (red cells, then hemolysate) of patients with homozygous SS
Source text: as §1, §2

α- or β-globin chains = target: T3, α- or β-globin chains (Homo sapiens, UniProt P68871+P69905, E7V); test: Reversed-phase HPLC of hemolysates for binding to α- or β-globin chains; assay type: cell-based; settings: 2 mM and 5 mM; intact SS cells; reverse-phase HPLC
T3 construct: Leftover blood samples from patients with homozygous SS were obtained and utilized; from tissue; host or cells: blood (red cells, then hemolysate) of patients with homozygous SS
Source text: as §1
(§3) Experimental Procedure: The MMA series of compounds (MMA-301, MMA-304, MMA-205, MMA-401, MMA-402, MMA-403, MMA-405, MMA-406, MMA-407, MMA-408, MMA-409 and MMA-410) and the positive controls vanillin and 5-HMF were studied for their abilities to inhibit hypoxia-induced RBC sickling (RBC morphology study), increase Hb oxygen, and/or modify Hb (adduct formation) as previously published.^31,33 Briefly, homozygous SS blood (hematocrit: 20%) suspensions were incubated under air in the absence or presence of 2 and/or 5 mM concentration of test compounds at 37° C. for 1 hr. Following, the suspensions were incubated under hypoxic condition (2.5% oxygen) at 37° C. for 2 hr. Aliquot samples were fixed with 2% glutaraldehyde solution without exposure to air, and then subjected to microscopic morphological analysis. The residual samples were washed in phosphate-buffered saline, and hemolyzed in hypotonic lysis buffer for the Hb oxygen equilibrium and Hb adduct experiments. […]

βCys93 of Hb = βCys93 of Hb (Homo sapiens, UniProt P68871); test: Reactivity toward βCys93 of Hb (DTNB disulfide exchange, absorbance at 412 nm); assay type: biochemical; settings: 2 mM compound, Hb 50 μM, four hours at 25° C.
Experimental: Experimental Procedure: Aqueous solution of Hb (50 μM) was mixed with MMA 409 or MMA 410 (2 mM). Additionally, Hb was mixed with phosphate buffered saline (PBS) to serve as a negative control. […] Ethacrynic acid, which is known to bind to the thiols of hemoglobin and thus limits the reaction between DTNB (5,5′-dithiobis-(2-nitrobenzoic acid) and βCys93, was studied as a positive control.^42 The mixtures were incubated for four hours at 25° C., and then centrifuged with washing to separate excess reagents from the Hb. The washed hemoglobin was stored overnight at 4° C. After, 5 μL of 100 mM DTNB was added to 25 μL of each Hb solution, and these solutions were each diluted to 500 μL in 0.1 M phosphate buffer and were incubated for an hour. Another 25 μL of each Hb solution was diluted to 500 μL in buffer to serve as a non-DTNB control. The tubes containing these solutions were centrifuged, and the collected yellow filtrate was quantified by measuring absorbance at 412 nm using a spectrophotometer as previously described.^42

Hb [3] = target: T2, Hb; test: Hb adduct formation study by cation-exchange HPLC after incubation with intact SS cells; assay type: cell-based; settings: 2 mM and/or 5 mM
Source text: as §1, §3

[4] = in-vivo; aldehyde protected by L-cysteine; cited from earlier work

O=Cc1ccc(CO)o1 [5-HMF, 5-Hydroxymethylfurfural]
RBC sickling (reduced to) (intact SS cells; 2 mM compound): 50%
RBC sickling (reduced to) (intact SS cells; 5 mM compound): 14%
time course of biological activity (P50 shift) over 24 hr (Hb [1]): declined rapidly
activation at 2000 µM (Hb [2]): 33%

CC(=O)/C=C/c1ncc[nH]1 [MMA-301, (E)-4-(1H-imidazol-2-yl)but-3-en-2-one]
activation at 2000 µM (Hb [2]): 12.7%
activation at 5000 µM (Hb [2]): 18.2%

NC(=O)C(=O)c1ncc[nH]1 [MMA-304]
activation at 2000 µM (Hb [2]): 16.5%
activation at 5000 µM (Hb [2]): 22.1%

O=C(O)/C=C/c1ccc(CO)o1 [MMA-401, (E)-3-(5-(hydroxymethyl)furan-2-yl)acrylic acid]
melting point: 138 °C

NC(=O)/C=C/c1ccc(CO)o1 [MMA-403, (E)-3-(5-(hydroxymethyl)furan-2-yl)acrylamide]
melting point: 131 to 156 °C

CC(=O)/C=C/c1ccc(CO)o1 [MMA-404, (E)-4-(5-(hydroxymethyl)furan-2-yl)but-3-en-2-one]
melting point: 20 °C

COCc1ccc(C(=O)C(F)(F)F)o1 [MMA-405, 2,2,2-trifluoro-1-(5-(methoxymethyl)furan-2-yl)ethan-1-one]
effect on Hb affinity for oxygen (Hb [2]): no effect

COC(=O)/C=C/c1ccc(CO)o1 [MMA-406, methyl (E)-3-(5-(hydroxymethyl)furan-2-yl)acrylate]
melting point: 66 °C
effect on Hb affinity for oxygen (Hb [2]): no effect

C=CC(=O)c1ccc(COc2ccccc2)o1 [MMA-409]
adduct formation with globin chain (α- or β-globin chains): exclusive adduct formation with the β-chain
RBC sickling (reduced to) (intact SS cells; 2 mM compound): 49%
RBC sickling (reduced to) (intact SS cells; 5 mM compound): 18%
time course of biological activity (P50 shift) over 24 hr (Hb [1]): sustained throughout the 24 hr experiment
% free thiols of βCys93 (βCys93 of Hb): 46%
activation at 2000 µM (Hb [2]): 22%
activation at 5000 µM (Hb [2]): 52%
Hb modification (adduct formation) (Hb [3]): significant Hb modification

C#CC(=O)c1ccc(COc2ccccc2)o1 [MMA-410]
% free thiols of βCys93 (βCys93 of Hb): 54%

C=C(CC)C(=O)c1ccc(OCC(=O)O)c(Cl)c1Cl [ethacrynic acid, Ethacrynic acid, reference compound]
% free thiols of βCys93 (βCys93 of Hb): 54%

O=C(O)C1CSC(c2ccc(CO)o2)N1 (centres unmarked) [thiazolidine complex of 5-HMF]
extension of 5-HMF half-life [4]: 2 fold

COc1cc(C=O)ccc1O [vanillin, reference compound]
RBC sickling (reduced to) (intact SS cells; 2 mM compound): 57%
RBC sickling (reduced to) (intact SS cells; 5 mM compound): 36%
activation at 2000 µM (Hb [2]): 12%
activation at 5000 µM (Hb [2]): 27%
